Columns and labels:
[1] = system: TRP1 gene integrated at the silent HMR locus; assay: TRP1 reporter at silent HMR locus growth assay; type: cell-based, S. cerevisiae; settings: tryptophan-deficient media, 36-48 h
Method: A secondary screening of the eleven identified compounds was carried out using a TRP1 gene which utilized a yeast strain with a TRP1 gene integrated at the silent HMR locus cannot grow in media lacking tryptophan (Buck, S. W. & Shore, D. (1995) Genes Dev. 9, 370-84). Using the method essentially described above, wells in a 96-well plate were inoculated with 150 μL of yeast culture (a yeast strain with a TRP1 gene integrated at the silent HMR locus), containing 1×10^5 cell/ml in tryptophan-deficient media. The eleven compounds dissolved in DMSO were added to the cells and the cultures are incubated for 36-48 h and growth in individual wells is tested by optical density (OD660) measurements and visual inspection.

[2] = system: wild type BY4741 cells vs sir2, hst1, hst2, hst3, hst4 deletion mutants; assay: Whole genome DNA microarray transcriptional profiling; type: cell-based, S. cerevisiae
Source text: In addition to SIR2, the S. cerevisiae genome encodes four SIR2 homologues: HST1-4 (Homologue of Sir Two) (Brachmann, C. B., et al. (1995) Genes Dev. 9, 2888-902). Hst2p is located in the cytoplasm and is responsible for virtually all the NAD^+-dependent deacetylase activity detected in a cellular lysate (Smith, J. S., et al., (2000) Proc. Natl. Acad. Sci. USA 97, 6658-63). Its relevant biological substrate is unknown. Hst1p is required for transcriptional repression of meiotic genes (Xie, J., et al. (1999) EMBO J. 18, 6448-54), whereas little is known about the cellular function of Hst3p or Hst4p.
Strains for the DNA array experiments for the whole genome analysis were obtained from Research Genetics (wild type BY4741: MATa his3, leu2, met15, […] or isogenic sir2, hst1, hst2, hst3 and hst4 deletion mutants). Several colonies from fresh cultures were inoculated into synthetic complete medium with 2% glucose, grown overnight at 30° C., diluted to 0.5−1×10^6 cell/ml and grown for an additional 6-9 hours until reaching a density of 0.5−1×10^7 cells/ml. […] Total RNA was extracted using the hot acid phenol method. Microarray construction and hybridization protocols were modified from those described elsewhere (DeRisi, J. L. et al. (1997) Science 278, 680-6). Briefly, yeast microarrays were constructed employing a set of ˜6200 or specific PCR primer pairs (Research Genetics, Huntsville, Ala.), which were used to amplify each open reading frame (orf) of the yeast genome. Individual PCR products were verified as unique via gel electrophoresis and purified using ARRAYIT 96-well PCR purification kits (TeleChem International, Sunnyvale, Calif.). Purified PCR products were mechanically “spotted” in 3×SSC (450 mM sodium chloride and 45 mM sodium citrate, pH 7.0) onto poly-lysine coated microscope slides using an OMNIGRID high-precision robotic gridder (GeneMachines, San Carlo, Calif.). […]

[3] = system: silenced telomeric URA3 gene; assay: URA3 telomeric silencing assay (cell-based screen for Sir2p inhibitors); parameters: species or system S. cerevisiae
Method: In order to find inhibitors of the deacetylase activity of Sir2p, screening was carried out to identify compounds that perturbed silencing at each of the loci at which Sir2p is known to act in S. cerevisiae: telomeres, HML, HMR, and the rDNA. The cell-based positive selection screen was designed so that inhibition of Sir2p activity permitted normal cell growth in order to avoid identifying cytotoxic compounds. Briefly, a yeast strain containing a marker gene, such as a nutritional marker, in close proximity to a telomeres in S. cerevisiae such that it is repressed by telomeric chromatin, is exposed to a test compound or set of test compounds dissolved in DMSO and cultured under suitable conditions and in media supplemented to permit growth only under conditions in which the marker gene is expressed. After a suitable interval, the optical density of the culture is measured. An increase in optical density corresponds to growth indicating a perturbation of silencing of the marker gene. All strains in this and other examples herein can be grown in synthetic complete media (SC) or selective synthetic drop-out media containing 2% glucose.
Initial screening for compounds that effect silencing was carried out using a URA3 assay. […] Eleven compounds identified in this primary screen were analyzed further to determine whether silencing at the HML and HMR loci was also affected.

mammalian cells = assay: Toxicity assays using S1 and a variety of DNA damaging agents; type: cell-based
Source text: (1996) Science 272, 408-11)). In addition to histones, many other proteins are regulated by acetylation, including pRb, E2F and p53 proteins (Chan, H. M., et al. (2001) Nat. Cell Biol. 3,667-74; Martinez-Balbas, M. A., et al. (2000) EMBO J. 19,662-71; and Luo, J., et al. (2000) Nature 408, 377-81). Two recent reports (Vaziri, H., et al. (2001) Cell 107, 149-159 and Luo, J., et al. (2001) Cell 107, 137-148) implicate deacetylation of p53, by Sir2, in down-regulation of transcriptional and proapoptotic activities of p53 in response to DNA damage. […] P. (2001) Oncogene 20, 2988-90 and Tycko, […]. Clin. Invest 105, 245-6).

HMLα locus in MATa cells = assay: Pheromone response assay, silencing at the HMLα locus in MATa cells; type: cell-based, S. cerevisiae
Source text: When haploid MATa cells are exposed to the mating pheromone […], they arrest in G1 phase of the cell cycle. Loss of silencing at the HMLα locus in MATa cells results in expression of a mating type genes (Marsh, L., et al. (1991) Annu. Rev. Cell Biol. 7, 699-728). The coexpression of α and a genes creates a pseudo-diploid state: cells are immune to […] and unable to mate.

Rat1a cells = assay: Sensitization to etoposide, 3H-thymidine incorporation viability; type: cell-based, rat; settings: S1 25, 50 and 100 μM with etoposide, 72 hours
Method: (§1) To test whether S1 could sensitize cells to DNA damage, mammalian cells were exposed to etoposide, a DNA damaging agent, in the presence and absence of S1. […] Viability of cells was assessed with 3H-thymidine incorporation.

[4] = system: primary human fibroblasts (HFF); assay: as above; type: cell-based; settings: S1 25, 50 and 100 μM with etoposide, 72 hours
Method: as §1

[5] = system: mutant SIR2 (GAL-SIR2-Y298N or GAL-SIR2-H286Q); assay: HDA assay with drug resistant mutant Sir2p; type: biochemical, S. cerevisiae; settings: in vitro, equivalent amounts of protein
Method: Briefly, histone H4 was chemically acetylated using the HDAC Assay Kit (Upstate Biotechnology). […] For the histone deacetylase assays, 50 μg of yeast whole-cell protein extract was incubated with [^3H] acetylated histone H4-peptide (40,000 cpm) with or without 500 μM NAD^+ in a 100 μl reaction. The buffer contained 150 mM NaCl, 25 mM sodium phosphate pH 7.4 and 1 mM DTT. Reactions were incubated at 30° C. for 16 hours and were stopped by the addition of 25 μl of 1 N HCl and 0.15 N acetic acid. Released [^3H] acetate was extracted with 400 μl of ethyl acetate.
To obtain further insight into the molecular mechanism by which S I inhibited deacetylase activity of Sir2p, mutant forms of Sir2p were generated that were resistant to the compound. […] Plasmid DNA was recovered from the individual colonies and was retransformed into the test strain to assure that drug resistance was conferred by SIR2-containing plasmid.

rDNA locus = assay: Recombination at the rDNA locus (loss of ADE2 integrated into the rDNA array); type: cell-based, S. cerevisiae
Method: Silencing within the rDNA locus is manifested in two ways. It can weakly repress expression of an inserted reporter gene (Smith, J. S. & Boeke, J. D. (1997) Genes Dev. 11, 241-54), and it reduces recombination between tandem copies of the ribosomal RNA genes (Gottlieb, S. & Esposito, R. E. (1989) Cell 56, 771-6). Recombination was analyzed by measuring the loss rate of an ADE2 gene integrated into the rDNA array essentially as described by Kaeberlein, M., et al. (1999 Genes Dev. 13, 2570-80). […] After six hours, the cultures were plated onto rich medium and the loss of expression of the ADE2 gene was measured and scored by the development of sectored red colonies. […] Treatment with SI increased recombination rate at the rDNA locus seven-fold, which is similar to rates observed in a sir2 mutant (FIG. 1D).

[6] = system: silent HML locus in G1-arrested MATa cells; assay: Maintenance of silent state in G1-arrested MATa cells; type: cell-based, S. cerevisiae
Source text: This was presumably due to loss of mating competence, a consequence of expression of the α2 gene from the “silent” HML locus. To test this idea more directly, a MATa strain with a single G1 cyclin gene (CLN3), which is under control of a galactose-inducible promoter (Cross, F. R. (1990) Mol. Cell Biol. 10, 6482-90), was arrested in G1 by replacing galactose with glucose in the media.

[7] = 50 μg/ml cycloheximide 40 minutes prior to S1

SMILES: O=C1CCc2c(ccc3ccccc23)O1 [S1, 1,2-dihydro-3H-naphtho[2,1-b]pyran-3-one]
- growth in media lacking tryptophan (loss of silencing at HMR) [1]: enabled cells to grow in media lacking tryptophan
- overlap with HST2, HST3 or HST4 regulated genes [2]: no overlap
- transcriptional down-regulation by S1 in the absence of new protein synthesis [2, 7]: virtually all transcriptional down-regulation was abolished
- upregulation of genes by S1 with cycloheximide [2, 7]: did not affect
- disruption of silencing in drug resistant SIR2 mutants vs wild type strains ([3]; SIR2-H286Q, SIR2-L287Q, SIR2-Y298N): required higher concentrations
- silencing at telomeric loci ([3]; URA3 telomeric marker, uracil-deficient media, 0.5, 5 and 50 μM, 36-48 h): disrupted silencing
- sensitization to DNA damaging agents (mammalian cells): sensitizes mammalian cells
- silencing at HML (HMLα locus in MATa cells): disrupted silencing at HML
- mating of MATa cells (HMLα locus in MATa cells; in the presence of S1): defective for mating
- responsiveness of MATa cells to α factor (HMLα locus in MATa cells; in the presence of S1): lost responsiveness to α factor
- sensitization to etoposide (Rat1a cells): dose-dependent sensitization
- sensitization to etoposide [4]: dose-dependent sensitization
- inhibitory effect on histone deacetylase activity of mutant proteins vs wild type Sir2p [5]: increased resistance
- silencing of a reporter gene within the rDNA locus (rDNA locus): disrupted silencing
- increase of recombination rate at the rDNA locus (rDNA locus; 15 μM, six hours, similar to rates in a sir2 mutant): seven-fold
- effect on rDNA recombination in sir2 cells (rDNA locus; sir2 cells treated with the compound): no effect
- α2 mRNA expression from HML in G1-arrested cells ([6]; CLN3 galactose-inducible strain arrested by glucose, DMSO control): detected only in the S1-treated cells
- cell cycle progression of α factor G1-arrested MATa cells ([6]; untreated cells remained arrested in G1): progressed through the cell cycle
